Source: patent US20240156764A1, “INHIBITION OF URACIL DNA GLYCOSYLASE IN THE OPEN CONFORMATION” (CASE WESTERN RESERVE UNIVERSITY, priority 2022, published 2024)
“Also recorded” adds a separate entry of the source.

Tests used:
[1] = target: T1, human OGG1 protein (Homo sapiens, UniProt O15527); experiment: Gel-based DNA cleavage assay with a single oxoG:C basepair; type: biochemical
T1 construct: purchased NEBiolabs (New England Biolabs)
Procedure: 20% polyacrylamide nucleic acid urea gel electrophoresis was used to resolve the DNA bands at room temperature, 200 v for 50 min. Analysis and quantification of DNA cleavage were done as follows. A background subtraction step was included using the 23mer from the DNA only lane. […] B: Points on the plot were averaged from four different gels. The IC50 value was generated using Prism software version 8.4.3, non-linear fit, [inhibitor] vs. response (three parameters, R2=0.99) averaging points from four different gels. Y error bars represent the standard deviation from the mean. […] A single oxo-guanine: cytosine base pair DNA with a Cy3 fluorescent tag on the 3′ end was used (10 nM). D: The IC50 value was generated using Prism software version 8.4.3, non-linear fit, [inhibitor] vs. response (three parameters, R2=0.98) averaging points from three different gels.
Following pre-incubation occurred for 20 min at 37° C., 2 μL of U:A DNA (500 nM stock) was added to initiate the reaction, total reaction volume of 50 μL/well. Each plate was incubated for 120 min at 37° C. […] Gel data were analyzed using ImageJ software. […] Percent cleavage was calculated by using fluorescence intensity of the cleaved 23-mer DNA strand divided by the sum of the fluorescence bands (23mer+40mer DNA strands)*100. […]

[2] = target: T2, UDG in human DLD1 colon cancer cell lysate (Homo sapiens, UniProt P13051); experiment: DNA cleavage assay with cell-free protein extracts from DLD1 cells; type: biochemical
T2 construct: IC50 in DLD1 UDG containing cell lysate; other: estimated; effect on 23mer ssDNA generation; DLD1 cell extracts; extracts where UDG was present
T2 sequence (P13051 45-313 limits assumed): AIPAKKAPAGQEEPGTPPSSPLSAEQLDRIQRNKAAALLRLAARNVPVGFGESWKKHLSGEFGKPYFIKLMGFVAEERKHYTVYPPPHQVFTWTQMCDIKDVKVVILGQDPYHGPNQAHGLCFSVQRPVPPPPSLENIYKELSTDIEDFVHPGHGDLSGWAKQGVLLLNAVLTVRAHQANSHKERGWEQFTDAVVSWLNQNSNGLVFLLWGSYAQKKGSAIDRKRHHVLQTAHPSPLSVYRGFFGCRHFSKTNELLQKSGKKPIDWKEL
Procedure: A: human cancer lysates were extracted from DLD1 human colon cancer cell lines. […] 20% polyacrylamide nucleic acid urea gel electrophoresis was used to resolve the DNA bands at room temperature, 200 v for 50 min. DNA products were visualized using a Typhoon Trio+Variable Mode Imager (Amersham Biosciences) with excitation and emission wavelengths set to 532 nm and 585 nm respectively, PMT set to 400, and pixel size resolution set to 100 μm. […] Either uracil DNA (U:A bp) or thymidine DNA (T:A bp) was added to initiate the reaction and incubated for additional 20 min at 37° C. 20% polyacrylamide nucleic acid urea gel electrophoresis was used to resolve the DNA bands. Gel data were analyzed using ImageJ software. DNA bands were corrected using a constant background band intensity subtraction step. Then, percent cleavage was calculated by using fluorescence intensity of the cleaved 23-mer DNA strand divided by the sum of the fluorescence bands (23mer+40mer DNA).
The reaction was pre-incubated for 20 min at 37° C. before a fluorescently-labeled TAMRA DNA duplex oligo containing a single U:A bp (final 30 nM) was added to each reaction well with a total reaction volume of 50 μL/well. Plate was further incubated for 20 min at 37° C. 5 μL of a denaturing loading dye (20 mg of bromophenol blue, 9.7 ml of formamide plus 300 μL of 10M NaOH) was added to stop each reaction. DNA products from each reaction were resolved on a 20% denaturing polyacrylamide nucleic acid urea gel (5.3 grams of urea was dissolved in 2.3 mL of 5×TBE, 5 mL of 40% bis-acrylamide 29:1 solution). 5×TBE buffer was prepared by dissolving 54 grams of tris base, 28 grams of boric acid, and 4.5 grams of EDTA in a liter of distilled H2O. Gels were processed at 200V for 60 mins at room temperature, in the dark. […] Gel data were analyzed using ImageJ software. […] Then, percent cleavage was calculated by using fluorescence intensity of the cleaved 23-mer DNA strand divided by the sum of the fluorescence bands (23mer+40mer DNA strands)*100 for untreated and treated conditions. […]

T1 sequence (O15527 whole entry): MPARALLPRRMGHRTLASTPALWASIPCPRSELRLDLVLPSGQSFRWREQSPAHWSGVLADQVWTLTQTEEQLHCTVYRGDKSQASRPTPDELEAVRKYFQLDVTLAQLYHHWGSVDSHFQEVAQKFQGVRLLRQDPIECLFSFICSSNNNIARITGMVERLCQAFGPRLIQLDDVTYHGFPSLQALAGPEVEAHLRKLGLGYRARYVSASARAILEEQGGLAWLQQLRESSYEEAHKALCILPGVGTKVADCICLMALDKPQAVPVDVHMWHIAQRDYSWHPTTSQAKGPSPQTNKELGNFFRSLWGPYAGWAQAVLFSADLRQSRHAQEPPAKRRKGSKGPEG

O=C(O)C1=CC(=C(c2ccc(O)c(C(=O)O)c2)c2ccc(O)c(C(=O)O)c2)C=CC1=O [ATA, aurintricarboxylic acid]
inhibitory effect on purified human OGG1 ([1]; OGG1 10 nM, compared with UDG): lesser inhibitory effect | IC50 ([1]; dsDNA with single 8oxoG:C bp, gel-based): 4.5 µM | effect on 23mer ssDNA generation ([2]; 12.5 μM ATA, DLD1 cell extracts): minimal effect | inhibition of 23mer ssDNA appearance ([2]; 50 μM ATA, extracts where UDG was present): near-complete inhibition; also recorded: completely inhibited | IC50 ([2]; read-out: IC50 in DLD1 UDG containing cell lysate): ~32.5 µM
